Measurements: ChEMBL document CHEMBL1136450, “Synthesis and biological activity of 2-carbomethoxy-3-catechol-8-azabicyclo[3.2.1]octanes” (Bioorg Med Chem Lett, 2003)

Experiments:
Type in all cases: cell-based, HEK293
[1] = target: T1, Sodium-dependent noradrenaline transporter (Homo sapiens, UniProt P23975); test: Inhibition of [3H]norepinephrine uptake in HEK cells expressing human NET
[2] = target: T2, Sodium-dependent dopamine transporter (Homo sapiens, UniProt Q01959)
[3] = target: T3, Sodium-dependent serotonin transporter (Homo sapiens, UniProt P31645); test: Inhibition of [3H]5-HT uptake in HEK cells expressing human SERT
[4] = target: T2, Sodium-dependent dopamine transporter; test: Inhibition of [3H]dopamine uptake in HEK cells expressing human DAT
[5] = target: T3, Sodium-dependent serotonin transporter
[6] = target: T1, Sodium-dependent noradrenaline transporter

T3 sequence (P31645 whole entry): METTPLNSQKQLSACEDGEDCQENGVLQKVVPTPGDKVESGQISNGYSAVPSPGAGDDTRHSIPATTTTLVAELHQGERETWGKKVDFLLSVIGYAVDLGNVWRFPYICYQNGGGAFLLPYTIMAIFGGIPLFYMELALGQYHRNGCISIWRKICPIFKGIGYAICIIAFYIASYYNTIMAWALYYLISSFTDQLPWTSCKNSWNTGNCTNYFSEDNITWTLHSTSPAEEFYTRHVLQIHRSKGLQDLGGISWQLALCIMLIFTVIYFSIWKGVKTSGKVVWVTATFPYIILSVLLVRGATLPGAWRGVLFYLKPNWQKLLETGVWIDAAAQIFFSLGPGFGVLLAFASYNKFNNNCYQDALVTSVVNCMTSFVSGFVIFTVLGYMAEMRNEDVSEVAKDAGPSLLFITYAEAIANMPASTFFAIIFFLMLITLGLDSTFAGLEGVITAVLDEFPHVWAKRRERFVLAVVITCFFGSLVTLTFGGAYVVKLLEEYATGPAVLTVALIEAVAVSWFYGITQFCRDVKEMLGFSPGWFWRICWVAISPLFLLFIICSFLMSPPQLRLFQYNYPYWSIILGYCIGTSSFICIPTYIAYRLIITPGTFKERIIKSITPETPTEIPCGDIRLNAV
T2 sequence (Q01959 whole entry): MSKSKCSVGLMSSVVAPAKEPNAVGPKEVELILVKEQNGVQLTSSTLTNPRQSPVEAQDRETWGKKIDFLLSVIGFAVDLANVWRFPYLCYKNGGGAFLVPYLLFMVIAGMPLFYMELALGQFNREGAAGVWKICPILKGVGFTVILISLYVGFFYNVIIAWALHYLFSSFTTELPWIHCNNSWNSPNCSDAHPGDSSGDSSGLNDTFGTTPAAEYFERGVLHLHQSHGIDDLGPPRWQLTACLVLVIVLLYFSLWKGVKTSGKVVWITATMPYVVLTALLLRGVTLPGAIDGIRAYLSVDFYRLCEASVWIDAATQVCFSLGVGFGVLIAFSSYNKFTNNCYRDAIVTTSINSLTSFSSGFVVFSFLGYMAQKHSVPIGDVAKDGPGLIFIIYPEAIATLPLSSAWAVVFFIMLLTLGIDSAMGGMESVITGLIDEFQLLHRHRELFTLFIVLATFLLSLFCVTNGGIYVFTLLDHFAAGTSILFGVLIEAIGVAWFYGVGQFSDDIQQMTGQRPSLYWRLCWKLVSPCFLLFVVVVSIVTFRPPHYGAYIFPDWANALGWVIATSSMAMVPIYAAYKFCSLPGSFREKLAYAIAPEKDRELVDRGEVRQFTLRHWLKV
T1 sequence (P23975 whole entry): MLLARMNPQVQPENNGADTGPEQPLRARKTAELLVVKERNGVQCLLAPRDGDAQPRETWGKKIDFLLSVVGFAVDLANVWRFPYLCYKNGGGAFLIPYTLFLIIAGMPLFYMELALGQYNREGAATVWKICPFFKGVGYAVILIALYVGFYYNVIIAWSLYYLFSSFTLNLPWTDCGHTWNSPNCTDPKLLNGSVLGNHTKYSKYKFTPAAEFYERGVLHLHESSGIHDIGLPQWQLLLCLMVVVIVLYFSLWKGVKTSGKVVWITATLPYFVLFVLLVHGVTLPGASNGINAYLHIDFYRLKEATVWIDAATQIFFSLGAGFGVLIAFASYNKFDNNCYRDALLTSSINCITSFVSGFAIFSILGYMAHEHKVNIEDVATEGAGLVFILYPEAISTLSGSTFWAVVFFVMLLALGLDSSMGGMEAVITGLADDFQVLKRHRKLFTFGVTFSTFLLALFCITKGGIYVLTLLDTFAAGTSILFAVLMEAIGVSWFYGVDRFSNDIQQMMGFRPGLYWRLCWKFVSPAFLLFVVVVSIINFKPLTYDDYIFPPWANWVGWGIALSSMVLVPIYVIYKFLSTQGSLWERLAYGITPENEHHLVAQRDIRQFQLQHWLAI

SMILES | IC50 [1] [nM] | Ki [2] [nM] | IC50 [3] [nM] | IC50 [4] [nM] | Ki [5] [nM] | Ki [6] [µM] | Ki ([2]; hek293) [nM] | Ki ([6]; hek293) [µM]
COC(=O)C1C(c2ccc(O)c(O)c2)CC2CCC1N2C (stereo in doubt; 7) | 122 | 1370 | 308 | 507 | 271 | 2.96 | – | –
COC(=O)C1C(c2ccc(C(C)=O)c(C(C)=O)c2)CC2CCC1N2C (stereo in doubt; 11) | – | > 10000 | – | – | 704 | > 10 | – | –
COC(=O)C1=C(c2ccc(C(C)=O)c(C(C)=O)c2)CC2CCC1N2C (stereo not given) | – | > 10000 | – | – | > 10000 | > 10 | – | –
COC(=O)C1=C(c2ccc(O)c(O)c2)CC2CCC1N2C (stereo not given) | – | > 10000 | – | – | > 10000 | > 10 | – | –
COC(=O)C1C(c2ccc(C(C)=O)c(C(C)=O)c2)CC2CCC1N2C (stereo in doubt; 10) | – | – | 330 | – | 168 | – | > 10000 | > 10
COC(=O)C1C(c2ccc(O)c(O)c2)CC2CCC1N2C (stereo in doubt; 8) | 173 | 970 | – | 406 | 10000 | 3.06 | – | –
COC(=O)C1C(c2ccc(OC)c(OC)c2)CC2CCC1N2C (stereo not given) | 1450 | 1540 | 23 | 1570 | 46 | 4.5 | – | –
